According to US12128035B2, “Activating pyruvate kinase R” (Novo Nordisk Health Care AG, priority 2021, dated 2024):

Test system: 2,3-DPG blood levels
Test: Phase 1 SAD/MAD: blood 2,3-DPG (LC-MS/MS) in healthy volunteers
Assay type: in vivo, human
Conditions: for median and mean reduction in 2,3-DPG, relative to baseline: all MAD dose levels
Description: In this study, SAD/MAD cohorts are randomized (3 to 1) to receive Compound 1 or placebo (P). Compound 1 was evaluated first in 4 healthy SAD cohorts and 4 healthy MAD (14-day dosing period) cohorts. Based on the safety, and PK/PD profile from HS, Compound 1 is then evaluated in 1 SCD SAD cohort and 2 SCD MAD cohorts. Specifically, based on the safety and pharmacokinetic/pharmacodynamics (PK/PD) profile in healthy volunteer studies, Compound 1 is evaluated in patients (pts) with SCD, first in a single dose (SD or SAD) cohort and then in multiple-dose (MD or MAD) cohorts (14-day and 12-week). Safety assessments include AEs, vital signs, ECGs and laboratory parameters. PK/PD blood sampling was performed on Day 1 (SAD/MAD) and Day 14 (MAD) and up to 72 h after the last dose and at the end-of-study visit. PD parameters included 2,3-DPG, ATP, and p50 in all cohorts with additional PD studies (including oxygen scan) performed only in the SCD cohorts. PD parameters included 2,3-DPG, ATP, p50, RBC deformability with controlled deoxygenation and reoxygenation (Lorrca® oxygen scan) and varying osmolality (Lorrca® osmoscan)). To maintain study blind, pt identifiers were removed when needed.
In the SAD cohorts, the subjects' blood 2,3-DPG levels were measured periodically after dosing by a qualified LC-MS/MS method for the quantitation of 2,3-DPG in blood. Decreased 2,3-DPG blood levels were observed 6 hours following a single dose of Compound 1 at all dose levels (earlier timepoints were not collected). Maximum decreases in 2,3-DPG levels generally occurred ˜24 hours after the first dose with the reduction sustained ˜48-72 hr postdose. Table 15 reports the median percentage change in 2,3-DPG blood levels, relative to baseline, measured over time in healthy volunteers after a single dose of Compound 1 (200 mg, 400 mg, 700 mg, or 1000 mg) or placebo. Table 16 reports the mean percentage change in 2,3-DPG blood levels, relative to baseline, measured over time in healthy volunteers after a single dose of Compound 1 (200 mg, 400 mg, 700 mg, or 1000 mg). Accordingly, the median and mean reduction in the concentration of 2,3-DPG, relative to baseline, was at least about 30% at all dose levels tested 24 hours after administration of the single dose.
In the MAD cohorts, the subjects' blood 2,3-DPG levels were measured periodically after dosing by a qualified LC-MS/MS method for the quantitation of 2,3-DPG in blood. […] Table 18B reports the mean percentage change in 2,3-DPG blood levels, relative to baseline, measured over time after the first dose on days 1 and 14 in healthy volunteers who received daily doses of Compound 1 (100 mg BID, 200 mg BID, 300 mg BID, or 400 mg QD) for 14 days. Accordingly, the median and mean reduction in the concentration of 2,3-DPG, relative to baseline, was at least about 25% at all dose levels tested 24 hours after administration of the first dose on day 1 and at least about 40% at all dose levels tested 24 hours after administration of the first dose on day 14.
The following procedures are employed for the analysis of ATP and 2,3-DPG in human whole blood K2EDTA using a protein precipitation extraction procedure and analysis by LC-MS/MS.
The following procedures are used for sample extraction prior to analysis via LC-MS/MS. 15.0 μL of the calibration standards, quality controls, matrix blanks, and samples are aliquoted into a 96-well plate. 50.0 μL of the internal standard spiking solution is added to all samples on the plate, with the exception of the matrix blank samples; 50.0 μL of water is added to the matrix blank samples. Subsequently, 150 μL of water is added to all samples on the plate. The plate is then covered and agitated by vortex at high speed for ten minutes, after which 750 μL of methanol is added to all samples on the plate. The plate is covered and agitated by vortex for approximately 1 minute. The plate is then centrifuged at approximately 3500 RPM at approximately 4° C. for five minutes. […]

[1] = HV 400 mg QD, Day 14, 8 h after first daily dose
[2] = HV 400 mg QD, Day 14, 12 h after first daily dose
[3] = HV 400 mg QD, Day 14, 16 h after first daily dose
[4] = HV 400 mg QD, Day 14, 24 h after first daily dose
[5] = HV 400 mg QD, Day 14, 48 h after first daily dose
[6] = HV 400 mg QD, Day 14, 72 h after first daily dose
[7] = HV single 200 mg, 0 h after dose
[8] = HV single 200 mg, 6 h after dose
[9] = HV single 200 mg, 8 h after dose
[10] = HV single 200 mg, 12 h after dose
[11] = HV single 200 mg, 16 h after dose
[12] = HV single 200 mg, 24 h after dose
[13] = HV single 200 mg, 36 h after dose
[14] = HV single 200 mg, 48 h after dose
[15] = HV single 200 mg, 72 h after dose
[16] = HV single 400 mg, 0 h after dose
[17] = HV single 400 mg, 6 h after dose
[18] = HV single 400 mg, 8 h after dose
[19] = HV single 400 mg, 12 h after dose
[20] = HV single 400 mg, 16 h after dose
[21] = HV single 400 mg, 24 h after dose
[22] = HV single 400 mg, 36 h after dose
[23] = HV single 400 mg, 48 h after dose
[24] = HV single 400 mg, 72 h after dose
[25] = HV single 700 mg, 0 h after dose
[26] = HV single 700 mg, 6 h after dose
[27] = HV single 700 mg, 8 h after dose
[28] = HV single 700 mg, 12 h after dose
[29] = HV single 700 mg, 16 h after dose
[30] = HV single 700 mg, 24 h after dose
[31] = HV single 700 mg, 36 h after dose
[32] = HV single 700 mg, 48 h after dose
[33] = HV single 700 mg, 72 h after dose
[34] = HV single 1000 mg, 0 h after dose
[35] = HV single 1000 mg, 6 h after dose
[36] = HV single 1000 mg, 8 h after dose
[37] = HV single 1000 mg, 12 h after dose
[38] = HV single 1000 mg, 16 h after dose
[39] = HV single 1000 mg, 24 h after dose
[40] = HV single 1000 mg, 36 h after dose
[41] = HV single 1000 mg, 48 h after dose
[42] = HV single 1000 mg, 72 h after dose

O=C([C@H](CO)c1ccccc1)N1CC2=C(C1)CN(S(=O)(=O)c1cnc3c(c1)OCCO3)C2 (single isomer, unassigned) [Compound 1]
Mean Percentage Change in 2,3-DPG Levels [1]: −55%
Median Percentage Change in 2,3-DPG Levels [1]: −56%
Mean Percentage Change in 2,3-DPG Levels [2]: −50%
Median Percentage Change in 2,3-DPG Levels [2]: −49%
Mean Percentage Change in 2,3-DPG Levels [3]: −51%
Median Percentage Change in 2,3-DPG Levels [3]: −52%
Mean Percentage Change in 2,3-DPG Levels [4]: −53%
Median Percentage Change in 2,3-DPG Levels [4]: −53%
Mean Percentage Change in 2,3-DPG Levels [5]: −38%
Median Percentage Change in 2,3-DPG Levels [5]: −40%
Mean Percentage Change in 2,3-DPG Levels [6]: −28%
Median Percentage Change in 2,3-DPG Levels [6]: −25%
maximum decrease in 2,3-DPG from baseline (median) (HV MAD cohorts, Day 14): 55%
Mean Maximum Percent Change from Baseline, 2,3-DPG (HV MAD, all doses and timepoints (N = 36)): −56.3%
2,3-DPG reduction sustained postdose (HV SAD cohorts): 48 to 72 h
Mean Maximum Percent Change from Baseline, 2,3-DPG (HV SAD, all doses and timepoints (N = 24)): −46.8%
Mean Percentage Change in 2,3-DPG Levels [7]: 0%
Median Percentage Change in 2,3-DPG Levels [7]: 0.0%
Mean Percentage Change in 2,3-DPG Levels [8]: −17%
Median Percentage Change in 2,3-DPG Levels [8]: −18%
Mean Percentage Change in 2,3-DPG Levels [9]: −21%
Median Percentage Change in 2,3-DPG Levels [9]: −17%
Mean Percentage Change in 2,3-DPG Levels [10]: −26%
Median Percentage Change in 2,3-DPG Levels [10]: −25%
Mean Percentage Change in 2,3-DPG Levels [11]: −28%
Median Percentage Change in 2,3-DPG Levels [11]: −33%
Mean Percentage Change in 2,3-DPG Levels [12]: −30%
Median Percentage Change in 2,3-DPG Levels [12]: −31%
Mean Percentage Change in 2,3-DPG Levels [13]: −31%
Median Percentage Change in 2,3-DPG Levels [13]: −33%
Mean Percentage Change in 2,3-DPG Levels [14]: −33%
Median Percentage Change in 2,3-DPG Levels [14]: −29%
Mean Percentage Change in 2,3-DPG Levels [15]: −14%
Median Percentage Change in 2,3-DPG Levels [15]: −18%
time of pharmacodynamic maximum (minimum of the 2,3-DPG concentration) (HV single 400 mg): ~24 h
Mean Percentage Change in 2,3-DPG Levels [16]: 0%
Median Percentage Change in 2,3-DPG Levels [16]: 0.0%
Mean Percentage Change in 2,3-DPG Levels [17]: −24%
Median Percentage Change in 2,3-DPG Levels [17]: −23%
Mean Percentage Change in 2,3-DPG Levels [18]: −29%
Median Percentage Change in 2,3-DPG Levels [18]: −29%
Mean Percentage Change in 2,3-DPG Levels [19]: −35%
Median Percentage Change in 2,3-DPG Levels [19]: −40%
Mean Percentage Change in 2,3-DPG Levels [20]: −38%
Median Percentage Change in 2,3-DPG Levels [20]: −35%
Mean Percentage Change in 2,3-DPG Levels [21]: −41%
Median Percentage Change in 2,3-DPG Levels [21]: −39%
Mean Percentage Change in 2,3-DPG Levels [22]: −37%
Median Percentage Change in 2,3-DPG Levels [22]: −38%
Mean Percentage Change in 2,3-DPG Levels [23]: −34%
Median Percentage Change in 2,3-DPG Levels [23]: −31%
Mean Percentage Change in 2,3-DPG Levels [24]: −30%
Median Percentage Change in 2,3-DPG Levels [24]: −30%
Mean Percentage Change in 2,3-DPG Levels [25]: 0%
Median Percentage Change in 2,3-DPG Levels [25]: 0.0%
Mean Percentage Change in 2,3-DPG Levels [26]: −30%
Median Percentage Change in 2,3-DPG Levels [26]: −29%
Mean Percentage Change in 2,3-DPG Levels [27]: −29%
Median Percentage Change in 2,3-DPG Levels [27]: −28%
Mean Percentage Change in 2,3-DPG Levels [28]: −41%
Median Percentage Change in 2,3-DPG Levels [28]: −41%
Mean Percentage Change in 2,3-DPG Levels [29]: −46%
Median Percentage Change in 2,3-DPG Levels [29]: −46%
Mean Percentage Change in 2,3-DPG Levels [30]: −49%
Median Percentage Change in 2,3-DPG Levels [30]: −49%
Mean Percentage Change in 2,3-DPG Levels [31]: −47%
Median Percentage Change in 2,3-DPG Levels [31]: −46%
Mean Percentage Change in 2,3-DPG Levels [32]: −48%
Median Percentage Change in 2,3-DPG Levels [32]: −48%
Mean Percentage Change in 2,3-DPG Levels [33]: −32%
Median Percentage Change in 2,3-DPG Levels [33]: −33%
Mean Percentage Change in 2,3-DPG Levels [34]: 0%
Median Percentage Change in 2,3-DPG Levels [34]: 0.0%
Mean Percentage Change in 2,3-DPG Levels [35]: −18%
Median Percentage Change in 2,3-DPG Levels [35]: −21%
Mean Percentage Change in 2,3-DPG Levels [36]: −31%
Median Percentage Change in 2,3-DPG Levels [36]: −33%
Mean Percentage Change in 2,3-DPG Levels [37]: −35%
Median Percentage Change in 2,3-DPG Levels [37]: −38%
Mean Percentage Change in 2,3-DPG Levels [38]: −40%
Median Percentage Change in 2,3-DPG Levels [38]: −40%
Mean Percentage Change in 2,3-DPG Levels [39]: −44%
Median Percentage Change in 2,3-DPG Levels [39]: −48%
Mean Percentage Change in 2,3-DPG Levels [40]: −46%
Median Percentage Change in 2,3-DPG Levels [40]: −47%
Mean Percentage Change in 2,3-DPG Levels [41]: −43%
Median Percentage Change in 2,3-DPG Levels [41]: −44%
Mean Percentage Change in 2,3-DPG Levels [42]: −27%
Median Percentage Change in 2,3-DPG Levels [42]: −24%
lag of maximum decrease in blood 2,3-DPG behind maximum plasma concentration (HV single 200, 400, 700 or 1000 mg): about 24 hours
time of maximal decrease in blood 2,3-DPG post-dose (HV single dose (400 mg), FIG. 41): 16 to 24 h
mean maximum reduction in the concentration of 2,3-DPG (MAD study): at least 50%
mean maximum reduction of 2,3-DPG, range (MAD study): 46.1-63.6%
mean maximum reduction in the concentration of 2,3-DPG (SAD study): at least 40%
mean maximum reduction of 2,3-DPG, range (SAD study): 35.4-56.1%
median and mean reduction in 2,3-DPG, relative to baseline (24 hours after first dose on day 1): at least 25%
median and mean reduction in 2,3-DPG, relative to baseline (24 hours after first dose on day 14): at least 40%
median and mean reduction in the concentration of 2,3-DPG, relative to baseline (all SAD dose levels, 24 hours after the single dose): at least 30%
